Data taken from ChEMBL document CHEMBL4613266, “Discovery and Structure Relationships of Salicylanilide Derivatives as Potent, Non-acidic P2X1 Receptor Antagonists” (J Med Chem, 2020).

Columns and labels:
Assay type in all cases: cell-based
P2X purinoceptor 7 = molecular target: T1, P2X purinoceptor 7 (Homo sapiens, UniProt Q99572); test: Antagonist activity at human P2X7 receptor expressed in human 1321N1 cells assessed as inhibition of ATP-induced cytosolic calcium influx preincubated for 30 mins followed by ATP addition by Fluo-4 AM dye-based fluorescence assay
T1 sequence (Q99572 whole entry): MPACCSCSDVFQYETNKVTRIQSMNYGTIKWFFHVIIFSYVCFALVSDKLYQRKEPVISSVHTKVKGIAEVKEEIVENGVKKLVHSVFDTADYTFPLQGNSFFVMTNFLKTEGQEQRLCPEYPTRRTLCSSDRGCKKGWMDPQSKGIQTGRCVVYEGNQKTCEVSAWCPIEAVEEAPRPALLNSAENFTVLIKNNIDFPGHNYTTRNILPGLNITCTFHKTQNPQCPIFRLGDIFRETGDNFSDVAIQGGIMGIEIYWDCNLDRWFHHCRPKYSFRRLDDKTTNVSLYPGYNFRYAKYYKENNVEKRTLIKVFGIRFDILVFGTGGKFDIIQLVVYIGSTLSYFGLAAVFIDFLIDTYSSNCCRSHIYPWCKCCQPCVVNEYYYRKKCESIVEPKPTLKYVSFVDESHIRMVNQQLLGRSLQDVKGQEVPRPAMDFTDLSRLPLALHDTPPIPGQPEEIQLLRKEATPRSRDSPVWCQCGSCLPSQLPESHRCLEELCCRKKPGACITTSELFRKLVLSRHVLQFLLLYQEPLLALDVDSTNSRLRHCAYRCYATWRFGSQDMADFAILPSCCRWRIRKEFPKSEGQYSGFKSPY

P2X purinoceptor 2 = molecular target: T2, P2X purinoceptor 2 (Homo sapiens, UniProt Q9UBL9); test: Antagonist activity at human P2X2 receptor expressed in human 1321N1 cells assessed as inhibition of ATP-induced cytosolic calcium influx preincubated for 30 mins followed by ATP addition by Fluo-4 AM dye-based fluorescence assay
T2 sequence (Q9UBL9 whole entry): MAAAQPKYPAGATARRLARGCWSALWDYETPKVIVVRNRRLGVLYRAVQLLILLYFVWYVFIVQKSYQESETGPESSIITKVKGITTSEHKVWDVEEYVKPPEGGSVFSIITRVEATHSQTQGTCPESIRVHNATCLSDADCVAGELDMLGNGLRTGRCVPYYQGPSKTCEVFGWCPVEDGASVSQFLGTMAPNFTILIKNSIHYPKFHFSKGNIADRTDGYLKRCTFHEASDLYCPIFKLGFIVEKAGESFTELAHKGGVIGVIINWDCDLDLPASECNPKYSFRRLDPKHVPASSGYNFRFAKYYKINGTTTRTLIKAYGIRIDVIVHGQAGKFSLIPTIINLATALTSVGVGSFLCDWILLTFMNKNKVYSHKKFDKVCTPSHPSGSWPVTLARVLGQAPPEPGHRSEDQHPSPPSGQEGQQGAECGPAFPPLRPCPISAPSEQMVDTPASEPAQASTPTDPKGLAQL

P2X purinoceptor 1 = P2X purinoceptor 1 (Homo sapiens, UniProt P51575); test: Antagonist activity at non-desensitizing human P2X1 receptor ( P2X2/P2X1 chimera) expressed in human 1321N1 cells assessed as inhibition of ATP-induced calcium influx pre-incubated for 30 mins before ATP stimulation by FLIPR assay relative to control
P2X purinoceptor 4 = molecular target: T3, P2X purinoceptor 4 (Homo sapiens, UniProt Q99571); test: Antagonist activity at human P2X4 receptor expressed in human 1321N1 cells assessed as inhibition of ATP-induced cytosolic calcium influx preincubated for 30 mins followed by ATP addition by Fluo-4 AM dye-based fluorescence assay
T3 sequence (Q99571 whole entry): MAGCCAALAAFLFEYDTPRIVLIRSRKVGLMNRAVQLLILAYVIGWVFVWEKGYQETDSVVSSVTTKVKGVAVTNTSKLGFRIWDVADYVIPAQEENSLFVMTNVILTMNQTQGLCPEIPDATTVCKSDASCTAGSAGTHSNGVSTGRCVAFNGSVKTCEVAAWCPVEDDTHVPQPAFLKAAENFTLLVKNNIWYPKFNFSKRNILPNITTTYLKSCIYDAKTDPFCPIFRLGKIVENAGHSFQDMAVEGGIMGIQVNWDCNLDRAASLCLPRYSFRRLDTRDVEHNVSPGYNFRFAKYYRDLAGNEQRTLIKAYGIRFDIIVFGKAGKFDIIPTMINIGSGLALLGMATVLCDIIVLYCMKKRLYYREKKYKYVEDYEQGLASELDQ

[1] = molecular target: T4, P2X purinoceptor 1 (Homo sapiens) (UniProt P51575); test: Antagonist activity at non-desensitizing human P2X1 receptor ( P2X2/P2X1 chimera) expressed in human 1321N1 cells assessed as inhibition of ATP-induced calcium influx at 10 uM pre-incubated for 30 mins before ATP stimulation by FLIPR assay relative to control
T4 sequence (whole entry): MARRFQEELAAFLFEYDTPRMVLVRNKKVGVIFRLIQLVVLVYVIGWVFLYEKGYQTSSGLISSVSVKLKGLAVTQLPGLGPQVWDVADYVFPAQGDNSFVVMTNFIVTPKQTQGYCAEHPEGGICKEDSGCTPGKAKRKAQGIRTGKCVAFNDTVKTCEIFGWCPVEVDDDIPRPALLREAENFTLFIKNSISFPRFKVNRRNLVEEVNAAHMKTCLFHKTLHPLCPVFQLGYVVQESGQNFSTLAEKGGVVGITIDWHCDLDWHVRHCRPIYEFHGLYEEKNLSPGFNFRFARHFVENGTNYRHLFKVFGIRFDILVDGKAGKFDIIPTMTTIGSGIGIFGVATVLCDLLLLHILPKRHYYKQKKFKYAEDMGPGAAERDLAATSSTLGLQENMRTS

[2] = molecular target: T5, P2X purinoceptor 2 (Homo sapiens) (UniProt Q9UBL9); test: Antagonist activity at human P2X2 receptor expressed in human 1321N1 cells assessed as inhibition of ATP-induced cytosolic calcium influx at 10 uM preincubated for 30 mins followed by ATP addition by Fluo-4 AM dye-based fluorescence assay relative to control
T5 sequence (whole entry): T2 sequence (Q9UBL9 whole entry)

P2X purinoceptor 3 = molecular target: T6, P2X purinoceptor 3 (Homo sapiens, UniProt P56373); test: Antagonist activity at human P2X3 receptor expressed in human 1321N1 cells assessed as inhibition of ATP-induced cytosolic calcium influx preincubated for 30 mins followed by ATP addition by Fluo-4 AM dye-based fluorescence assay
T6 sequence (P56373 whole entry): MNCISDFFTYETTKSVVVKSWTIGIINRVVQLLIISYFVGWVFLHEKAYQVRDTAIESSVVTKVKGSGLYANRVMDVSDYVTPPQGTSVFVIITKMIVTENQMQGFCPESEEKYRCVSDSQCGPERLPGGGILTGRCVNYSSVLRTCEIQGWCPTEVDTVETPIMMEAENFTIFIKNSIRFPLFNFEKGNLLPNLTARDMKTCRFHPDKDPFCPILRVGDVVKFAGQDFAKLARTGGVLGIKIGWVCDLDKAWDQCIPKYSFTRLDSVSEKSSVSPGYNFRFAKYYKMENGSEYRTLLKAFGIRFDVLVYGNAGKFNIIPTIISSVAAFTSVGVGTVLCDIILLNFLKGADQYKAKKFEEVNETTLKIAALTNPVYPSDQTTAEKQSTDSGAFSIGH

[3] = molecular target: T7, P2X purinoceptor 3 (Homo sapiens) (UniProt P56373); test: Antagonist activity at human P2X3 receptor expressed in human 1321N1 cells assessed as inhibition of ATP-induced cytosolic calcium influx at 10 uM preincubated for 30 mins followed by ATP addition by Fluo-4 AM dye-based fluorescence assay relative to control
T7 sequence (whole entry): T6 sequence (P56373 whole entry)

SMILES | IC50 (P2X purinoceptor 1) [µM] | inhibition [1] [%] | also measured
O=C(Nc1cc(C(F)(F)F)cc(C(F)(F)F)c1)c1ccc2ccccc2c1O | 0.341 | – | IC50 (P2X purinoceptor 7): 0.797 µM; IC50 (P2X purinoceptor 2): > 10 µM; IC50 (P2X purinoceptor 4): 0.729 µM
Nc1ccccc1C(=O)Nc1cc(C(F)(F)F)cc(C(F)(F)F)c1 | 9.93 | 67 | –
O=C(Nc1ccc(F)cc1)c1cc(Cl)ccc1O | 0.907 | 93 | –
O=C(Nc1cc(C(F)(F)F)cc(C(F)(F)F)c1)c1cnccc1O | > 10 | 31 | –
O=C(Nc1cc(C(F)(F)F)cc(C(F)(F)F)c1)c1cc([N+](=O)[O-])ccc1O | 2.53 | 99 | –
O=C(Nc1cccc(Cl)c1)c1cc(Cl)ccc1O | 0.0756 | 64 | IC50 (P2X purinoceptor 7): 0.599 µM; inhibition [2]: 0%; IC50 (P2X purinoceptor 3): > 10 µM; IC50 (P2X purinoceptor 2): > 10 µM; inhibition [3]: 3%; IC50 (P2X purinoceptor 4): 0.135 µM
O=C(Nc1cc(C(F)(F)F)cc(C(F)(F)F)c1)c1cc(O)ccc1O | 3.41 | 109 | –
O=C(Nc1ccc2cc[nH]c2c1)c1ccccc1O | > 10 | 11 | –
CN(C(=O)c1cc(Cl)ccc1O)c1cc(C(F)(F)F)cc(C(F)(F)F)c1 | 4.06 | 88 | –
COc1ccc(O)c(C(=O)Nc2cc(C(F)(F)F)cc(C(F)(F)F)c2)c1 | 0.755 | 91 | –
O=C(Nc1cc(O)cc(O)c1)c1cc(Cl)ccc1O | > 10 | 4 | –
O=C(Nc1cccc(S(=O)(=O)C(F)(F)F)c1)c1cc(Cl)ccc1O | 0.335 | 83 | –
NS(=O)(=O)c1cccc(NC(=O)c2ccccc2O)c1 | > 10 | 21 | –
O=C(Nc1cc(C(F)(F)F)cc(C(F)(F)F)c1)c1ccncc1O | 5.25 | 60 | –
O=C(NCc1cc(C(F)(F)F)cc(C(F)(F)F)c1)c1cc(Cl)ccc1O | 1.53 | 111 | –
O=C(Nc1ccccc1C(F)(F)F)c1cc(Cl)ccc1O | > 10 | 28 | –
O=C(Nc1cc(C(F)(F)F)cc(C(F)(F)F)c1)c1cccnc1O | > 10 | 9 | –
O=C(Nc1cc(C(F)(F)F)cc(C(F)(F)F)c1)c1cccc(O)c1 | 4.91 | 100 | –
O=C(Nc1ccc(Cl)cc1)c1cc(Cl)ccc1O | 0.199 | 55 | –
COc1cc(NC(=O)c2cc(Cl)ccc2O)cc(OC)c1 | 0.915 | 80 | –
O=C(CNc1cc(C(F)(F)F)cc(C(F)(F)F)c1)c1cc(Cl)ccc1O | 1.79 | 104 | –
Cc1ccc(O)c(C(=O)Nc2cc(C(F)(F)F)cc(C(F)(F)F)c2)c1 | 0.236 | 91 | –

SMILES | IC50 (P2X purinoceptor 1) [µM] | inhibition [1] [%] | also measured
CC(C)(C)c1cccc(NC(=O)c2cc(Cl)ccc2O)c1 | 0.567 | 100 | –
O=C(Nc1cccnc1)c1ccccc1O | > 10 | 3 | –
O=C(Nc1cc([N+](=O)[O-])cc([N+](=O)[O-])c1)c1cc(Cl)ccc1O | 4.35 | 62 | –
O=C(Nc1cc(C(F)(F)F)cc(C(F)(F)F)c1)c1c(O)cccc1O | 8 | 75 | –
Oc1ccc(Cl)cc1CNc1cc(C(F)(F)F)cc(C(F)(F)F)c1 | 3.82 | 122 | –
O=C(Nc1cc(C(F)(F)F)cc(C(F)(F)F)c1)c1cccc(C(F)(F)F)c1 | 7.18 | 63 | –
Cc1cccc(C(=O)Nc2cc(C(F)(F)F)cc(C(F)(F)F)c2)c1O | 0.655 | 102 | –
O=C(Nc1cc(C(F)(F)F)cc(C(F)(F)F)c1)c1cc(F)ccc1O | 1.66 | 96 | –
O=C(Nc1cc(C(F)(F)F)cc(C(F)(F)F)c1)c1ccccc1[N+](=O)[O-] | 8.6 | 61 | –
O=C(Nc1cc(C(F)(F)F)cc(C(F)(F)F)c1)c1ccccc1Cl | 539 | 100 | –
Cc1cc(C)cc(NC(=O)c2cc(Cl)ccc2O)c1 | 0.323 | 64 | –
O=C(Nc1cccc(C(F)(F)F)c1)c1ccccc1O [SALFLUVERINE] | 1.3 | 75 | –
O=C(Nc1cc(C(F)(F)F)cc(C(F)(F)F)c1)c1cccc([N+](=O)[O-])c1O | 0.869 | 112 | –
N#Cc1ccc(NC(=O)c2cc(Cl)ccc2O)cc1 | > 10 | 38 | –
O=C(Nc1cc(Cl)ccc1O)c1cc(C(F)(F)F)cc(C(F)(F)F)c1 | ≥ 10 | 48 | –
O=C(Nc1ccc([N+](=O)[O-])cc1)c1cc(Cl)ccc1O | – | 43 | –
O=C(Nc1cccc([N+](=O)[O-])c1)c1cc(Cl)ccc1O | 0.172 | 65 | –
C#Cc1cccc(NC(=O)c2cc(Cl)ccc2O)c1 | 1.34 | 60 | –
O=C(Nc1cc(C(F)(F)F)cc(C(F)(F)F)c1)c1ccccc1CO | > 10 | 37 | –
O=C(Nc1cc(C(F)(F)F)cc(C(F)(F)F)c1)c1cccc(Cl)c1 | 139 | 82 | –
O=C(Nc1ccc2ncccc2c1)c1ccccc1O | > 10 | 28 | –
CN1CCN(C(=O)Nc2cc(C(F)(F)F)cc(C(F)(F)F)c2)C1=O | > 10 | 0 | –
